In this assay the test system is CDF1 male mice. In words: Spontaneous activity for 60 minutes after 3 hours forced walking exercise (treadmill), infrared sensor. Type of assay: in vivo. The following applies: oral, Bonito Extract A 1 g/kg in terms of a free amino acid amount, known components of Bonito Extract A, vs Control group. Here is the method: Three groups (A, B and C groups) of 5-week-old CDF1 male mice, each group consisting of 8 mice (n=8 for each group), were put in a treadmill and subjected to forced walking exercise for 3 hours. Then, the mice of the respective groups were orally administrated, using a gastric sonde, with (1) Bonito Extract A, (2) Bonito Extract B, and (3) Bonito Extract C in an amount of 1 g/kg in terms of free amino acid amount in the bonito extracts. Subsequently, their spontaneous activity for 60 minutes was measured using a spontaneous activity measuring apparatus provided with an infrared sensor, and comparison with the control group (Control group which was administrated with only deionized distilled water in the same manner as the samples) was carried out. The respective samples and the distilled water were administered in amounts of 0.5 mL. The result is represented in FIG. 1.
In the Figure, *, ** and *** represent significant differences from the control group, * being at p<0.05, ** being at p<0.01, and *** being at p<0.001. “Total counts” refers to the number of times of exercising that were measured with the infrared sensor for 60 minutes.
Three groups of 5-week-old CDF1 male mice, each group consisting of 8 mice (n=8 for each group), were put in a treadmill and subjected to forced walking exercise for 3 hours. […]

Turning to `[Cl-].[Na+]` [NaCl], the “recovery of spontaneous activity (Test Example 6, FIGS. 8, 9 and 10)” value is “recovery of spontaneous activity was not observed”. Consider inosine 1-phosphate [nucleic acid], for which the “recovery of spontaneous activity (Test Example 6, FIGS. 8, 9 and 10)” value is on record as “recovery of spontaneous activity was not observed”.

The values are drawn from patent US20090104278A1, “FOOD COMPOSITION FOR RECOVERY FROM FATIGUE” (Ajinomoto Co., Inc., priority 2002, published 2009).
